Where two headings read alike, the source gives them in different places.
Tests used:
[1] = system: HCT-116 colon carcinoma cells; assay type: cell-based, human
Experimental: (§1) T a bl e S4. The parallel artific ial membrane permeability assay (PAM PA). […]
(§2) […] The cel l s were s pl it before reac hi ng confl uence w i t h 0. 05% T ry ps i n-ED TA (G i bco™, The rmo Fisher Scientific).
(§3) C ell v ia bility a ssa y
HC T-116 cells suspended in McCoy’s 5A m edium were plated in 96 -w el l pl at es (200 μ L, 2, 500 cells/well), incubated (37 °C, 5% CO2), and 24 h later treated with various concentrations of compou nds or s ol v ent cont rol (0. 25% D M SO). […] […] Cell viability w as cal cul at ed accordi ng t o t he manufact u rer’ s i ns t ruct i ons (Promeg a).
T a bl e S5. GI50 of the L argazole, L argazole Thiol and Stapled L argazole

[2] = UV-initiated thiol-ene decaging reaction (HPLC); assay type: physicochemical; conditions: 1-thio-β-D-glucose tetraacetate and DPAP, UV irradiation 365 nm, 15 minutes; HPLC trace
Excerpt: Inspired by this AFCT reaction, we hypothesized that the isobutylene structure could be used as a bridging graft to cage thiol‐containing drugs and allow further controlled activation of anticancer drugs by means of a radical‐mediated thiol‐ene mechanism (Scheme 1). […] Our research began with N‐tert‐butoxycarbonyl‐L‐cysteine methyl ester (N‐Boc‐Cys‐OMe 1), which was protected with 3‐bromo‐2‐bromomethyl‐1‐propene (Table 1 and Supporting Information). The stapled cysteine 2 was then screened under a series of reaction conditions. Firstly, different PIs were tested with the same amounts of thiol source, 1‐thio‐β‐D‐glucose tetraacetate (4AcGlcSH), and 2 under irradiation at 365 nm. […] However, the other PI, 2,2‐dimethoxy‐2‐phenylacetophenone (DPAP) successfully promoted the reaction and released 1. β‐Mercaptoethanol (BME) was also tested as the thiol compound under the same reaction conditions. […] However, when N,N‐dimethylformamide (DMF) was used as solvent, two mixed disulfides resulting from the reaction between the 1‐thioglucose and N‐Boc‐cysteine methyl ester 1′ were observed. […]
The cyclic depsipeptide largazole is a marine natural product, and its derivatives are recognized as promising potential anticancer therapeutics. […] Next, the growth‐inhibitory activity was evaluated with human colon carcinoma cell lines, HCT‐116 (Figure 2 c). […]

[3] = Parallel artificial membrane permeability assay (PAMPA); assay type: in vitro ADME; conditions: PAMPA Evolution, Pion GIT-0 phospholipid mixture, ~50 μM, ~15 h, UV read-out, average of quadruplicates
Experimental: […] […] The effect i v e permeability, Pe, of each compound was measured at the customer -s peci fi ed pHs i n t he dono r compart ment us i ng l ow-bi ndi ng , l ow UV P ri s ma bu ffer. […] The propri et ary s cav eng er mi mi cs s erum prot ei ns and bl ood ci rcul at i on, t hus creat i ng si nk condi t i ons .
I n t he defaul t p rot oc ol t he a queous s ol ut i ons of s t udi ed com poun ds are p repared by di l ut i ng and thoroughly mixing 3 μL of DMSO stock in 600μL of Prisma HT buffer. Final concentration of org ani c s ol v ent (D M SO) i n aqueous buf fer i s ≤ 0. 5 % (v /v ).
The PAM PA s andw i ch was assembl ed and al l owed to i ncubat e for ~15 ho urs . The s ol ut i ons i n t he don or compart ment w ere un- stirred within du ration of t he ex peri ment . Thus , t he t hi ck nes s of t he aqueous bounda ry l ay er ex pect ed t o be about 1000 μ m. […] Ket oprofen, Verapmi l and P ropan ol ol w ere us ed as […]
[…] […] Act ual pH t he bu ffers w as 7. 40 ± 0. 05.
S t o c k sol u ti ons preparation
The samples were diluted with an organic solvent (DMSO) to prepare stock s ol ut i ons at concent rat i on ~10 mM . […] 40 […]
as §1, §2, §3
HC T-116 cells suspended in McCoy’s 5A m edium were plated in 96 -w el l pl at es (200 μ L, 2, 500 […]

HDAC = test: Fluorometric HDAC activity assay with HCT-116 cell lysates; assay type: cell-based, human; conditions: UV-irradiated premixed group of stapled largazole and DPAP, relative to control groups and non-irradiation group, Ex/Em 355/460 nm
Experimental: (§4) Viability Viability Viability
(§5) DPAP Toxicity DPAP+64W-15min DPAP+80W-15min
(§6) Figu r e S7. The DPAP c onc entration and UV c ondition Sc reening. a) The cytotoxicity of DPAP without UV; b) The cytotoxicity of DPAP with UV, 365 nm, 64W, 15 min; c) The cytotoxicity of DPAP with UV, 365 nm, 80W, […]
(§7) P hotoa ctiv a tion of S ta pled La r g a zole in H C T-116 cells
(§8) Plate Cells Compounds UV CellTiter Blue Detect
(§9) Sch eme S6. The phot oact ivat ion of St apled L argazole in HC T- 116 c ells.
(§10) […] […] […] Aft er a not her 48 h of i ncubat i on, t he cel l v i abil it y w as measured according to the general method a bove.
(§11) H istone D ea cety la se ( H D AC ) Activ ity Assa y ( Fluor om etr ic) Following the measurement of the cell viability, the plates were washed with cold PBS for three t i mes. […]
(§12) (also on this page, place not known: Condition Screening Figure concentration condition Screening. Photoactivation Stapled Largazole HCT-116 Scheme photoactivation Stapled Largazole HCT-116 cells. HCT-116 cells plated in 200 μL medium per well density 2,500 cells/well grown in plates. incubated oC, 5% CO2). After h, cells various (Largazole, Largazole Thiol Stapled Largazole nM, 1.5 μM) solvent control (0.25% DMSO). group irradiated with light W) min. […]
(Thermo Sci ent i fi c™). […] Aft er be i ng i ncubat ed fo r an ot her 30 mi n at R T, t he fl uores cence i nt ens i t y w as read at Ex /Em = 35 5 n m / 4 60 nm. […]

HCT-116 cells = test: Photoactivation of stapled largazole in HCT-116 cells (cell viability); assay type: cell-based, human; conditions: stapled largazole 150 nM premixed with DPAP 1.5 μM, UV 365 nm, 80 W, 15 min, then 48 h, compared with non-irradiation, stapled largazole and largazole thiol groups
Experimental: as §4, §5, §6, §7, §8, §9, §10, §11
as §12, with “min. After another of incubation, viability was above.” for “min.”

CCCCCCCC(=O)SCC/C=C/[C@@H]1CC(=O)NCc2nc(cs2)C2=N[C@@](C)(CS2)C(=O)N[C@@H](C(C)C)C(=O)O1 [largazole]
GI50 ([1]; 48 h): 1.43 nM

CC(C)[C@@H]1NC(=O)[C@]2(C)CSC(=N2)c2csc(n2)CNC(=O)C[C@@H](/C=C/CCS)OC1=O [largazole thiol]
GI50 ([1]; 48 h): 185 nM

C=C(CSCC/C=C/[C@@H]1CC(=O)NCc2nc(cs2)C2=N[C@@](C)(CS2)C(=O)N[C@@H](C(C)C)C(=O)O1)CSCC/C=C/[C@@H]1CC(=O)NCc2nc(cs2)C2=N[C@@](C)(CS2)C(=O)N[C@@H](C(C)C)C(=O)O1 [stapled largazole]
GI50 ([1]; HCT-116 cells, 48 h treatment, CellTiter-Blue, read-out: GI50): 408 nM
Conversion in the decaging reaction [2]: Full conversion
logPe (Avg. logPe) ([3]; donor Prisma HT buffer pH 7.4, acceptor sink buffer pH 7.4, DMSO <0.5%, unstirred): −5.29
Papp ([3]; donor Prisma HT buffer pH 7.4, acceptor sink buffer pH 7.4, DMSO <0.5%, unstirred, read-out: Pe, effective permeability (Avg. Pe)): 5.3 ×10⁻⁶ cm/s
Avg. %R, membrane retention ([3]; donor pH 7.4, by mass balance): 10%
HDAC activity (fluorescence) after photoactivation (HDAC): significant decrease of fluorescence
Cell viability after photoactivation (HCT-116 cells): significantly lower cell viability
